Values of other authors as cited in US20150018320A1, “Hormone Containing Emulsion Comprising Krill Phospholipids” (B. Braun Melsungen AG, priority 2012, published 2015).

Test system: TBI patients
Conditions: two clinical trials

CC(=O)[C@H]1CC[C@H]2[C@@H]3CCC4=CC(=O)CC[C@]4(C)[C@H]3CC[C@]12C [progesterone, pregn-4-ene-3,20-dione]
mortality: decreased mortality
safety and tolerability: safe and well tolerated
